For assay [1], the target named is T1, Genome polyprotein (Hepatitis C virus genotype 1b (isolate Japanese), UniProt P26662). Briefly: HCV Polymerase Enzyme Assay. An excerpt:
Test compounds in the form of nucleoside triphosphates were examined for inhibitory activity against purified HCV polymerase in a standard assay. Bacterial expression constructs encoding the approximately 65 kDa HCV genotype 1b NS5B protein were used to generate recombinant HCV polymerases (with a deletion of the 21 carboxy terminal amino acids). Both the wild-type genotype 1b protein and protein containing the S282T mutation were expressed and purified for use in the enzymatic activity assay.The enzymatic activity assay measured the inhibitory effect of increasing concentrations of test compound on the incorporation of α-[33P]-labeled nucleotide into trichloroacetic acid-precipitable material. Recombinant polymerase and synthetic RNA template were combined in reaction buffer containing ribonucleoside triphosphates, α-[33P]-labeled nucleotide and eight concentrations of test compound in three-fold dilutions. Reactions were incubated for two hours at 30° C.Reactions were terminated by the addition of ice-cold trichloroacetic acid and sodium pyrophosphate to promote precipitation of newly-synthesized ribonucleic acid. Precipitable material from the reactions was collected by filtration onto 96-well filter plates, washed extensively with water, and quantified by liquid scintillation.The inhibitory activity of test compounds was determined by fitting results to dose-response curves using XLfit software.

The target of assay [2] is T1, Genome polyprotein.

Structures are written as SMILES.

Consider seven molecules from BindingDB's records for patent US10513534 (IDENIX PHARMACEUTICALS LLC; CENTRE NATIONAL DE LA RECHERCHE …, 2019).

For orientation: IC50 means the concentration that inhibits the measured activity by half. `C[C@@]1(Cl)[C@H](O)[C@@H](COP(=O)(O)OP(=O)(O)OP(=O)(O)O)O[C@H]1n1ccc(=O)[nH]c1=O` [US10513534, Compound 401]: at Genome polyprotein [1], the half-maximal inhibitory concentration (IC50) was < 250 nM.

Regarding `C[C@@]1(Cl)[C@H](O)[C@@H](COP(=O)(O)OP(=O)(O)OP(=O)(O)O)O[C@H]1n1ccc(N)nc1=O` [US10513534, Compound 402], at Genome polyprotein [1], the 50% inhibitory concentration (IC50) came to 5500 nM. This lies in the single-digit micromolar range.

Take `C[C@@]1(Cl)[C@H](O)[C@@H](COP(=O)(O)OP(=O)(O)OP(=O)(O)O)O[C@H]1n1ccc2c(N)ncnc21` [US10513534, Compound 403]: the half-maximal inhibitory concentration (IC50) on Genome polyprotein [2] is < 250 nM.

As for `C[C@@]1(Cl)[C@H](O)[C@@H](COP(=O)(O)OP(=O)(O)OP(=O)(O)O)O[C@H]1n1cnc2c(N)nc(Cl)nc21` [US10513534, Compound 404], the IC50 at Genome polyprotein [1] and against Genome polyprotein [2] was > 10000 nM each time.

In the case of `C[C@@]1(Cl)[C@H](O)[C@@H](COP(=O)(O)OP(=O)(O)OP(=O)(O)O)O[C@H]1n1cnc2c(=O)[nH]c(N)nc21` [US10513534, Compound 405], the concentration for half-maximal inhibition (IC50) at Genome polyprotein [2] was < 250 nM.

Take `C[C@@]1(Cl)[C@H](O)[C@@H](COP(=O)(O)OP(=O)(O)OP(=O)(O)O)O[C@H]1n1cnc2c(N)ncnc21` [US10513534, Compound 406]: on Genome polyprotein [1], the IC50 is < 250 nM.

On to `C[C@@]1(Cl)[C@H](O)[C@@H](COP(=O)(O)OP(=O)(O)OP(=O)(O)O)O[C@H]1n1cc(F)c2c(N)ncnc21` [US10513534, Compound 407], for which the concentration for half-maximal inhibition (IC50) at Genome polyprotein [2] was < 250 nM.
